# Where two headings read alike, the source gives them in different places.
# How the values were obtained:
# [1] = BisEDT single-dose rat PK studies comparing inhalation, IV and oral dosing; assay type: in vivo
# Experimental: Based on existing in vivo and in vitro toxicology data as well as rat PK and in vitro MIC data, BisEDT suspension for inhalation can be reliably administered at doses providing efficacious lung levels that are tolerated, and it is therefore a viable clinical development candidate. […] 24 hours after single inhalation dose 4,093 ng/g was measured in the lung tissue (which equates to 123 μg/mL in lung fluid) and 4 days (96 hrs) after single dose 2,600 ng/g in lung tissue (which equates to 78 μg/mL in lung fluid). Without being bound by any particular theory, it is believed BisEDT's low solubility provides slow dissolution and long exposure on lung surface fluids with limited systemic exposure via diffusion through lung epithelium. The lung appears to act as a depot for slow systemic exposure with about 10× lower systemic levels than seen in the lung. The terminal phase of the IV data appears to show slow elimination after initial tissue distribution (FIG. 10).
# [2] = Nose-only inhalation exposure in F344 rats: whole blood and lung BisEDT concentration (ICP-MS bismuth as surrogate); assay type: in vivo; conditions: rat; for concentration at 8 h: nominal time 8 hr; for concentration at 12 h: nominal time 12 hr; for concentration at 24 h: nominal time 24 hr; for concentration at 30 h: nominal time 30 hr
# Experimental: Inhalation Exposure: The initial exposure of BisEDT (Bismuth-1,2-ethanedithiol) was formulated as a solution at 100 mg/mL in suspension in 0.5% Tween 80, 10 mM sodium phosphate, pH 7.4, in NaCl (adjusted to approximately 300 mOsm). Aerosols were generated with a commercial compressed air jet nebulizer, Pad LC Plus, operated with an inlet pressure of 20 psi. The aerosols were transitioned into a rodent nose-only inhalation exposure system. The exposure system was operated with an inlet air flow of […] and an exhaust air flow of −5 L/min.
# Detailed gross necropsies were performed on all animals (found dead, moribund, or scheduled necropsy) and consisted of a complete external and internal examination including body orifices and cranial, thoracic, and abdominal organs and tissues. All gross findings will be recorded in descriptive terms. […] Lungs collected and weighed.
# Tables 6 and 7 below show whole blood BisEDT versus time data and lung BisEDT concentration at sacrifice time data respectively.
# [3] = tested on: Pseudomonas aeruginosa strain PA01; test: Bacterial killing curves with and without 10% cystic fibrosis patient sputum; assay type: cell-based
# Experimental: Bacterial killing curves with BisEDT and BisBDT were performed in the presence of […] cystic fibrosis patient sputum in order to determine whether the test compounds are potentially inactivated by sputum. The assay is described in King P, Lomovskaya O, Griffith D C, Burns J L, Dudley M N. In vitro pharmacodynamics of levofloxacin and other aerosolized antibiotics under multiple conditions relevant to chronic pulmonary infection in cystic fibrosis. Antimicrob Agents Chemother, 54:143-8, 2010.
# Sputum was collected from cystic fibrosis (CF) patient volunteers without recent antibiotic exposure after appropriate IRB approval. Sputum was sterilized by UV irradiation and sterilization was confirmed by culture. An overnight culture of Pseudomonas aeruginosa strain PA01 was used to inoculate fresh cultures in cation-adjusted Mueller-Hinton broth or cation-adjusted Mueller-Hinton broth plus 10% CF patient sputum. Drugs were added to individual culture tubes with and without sputum at the following final concentrations: • BisEDT: 0.1 μg/mL, 2 μg/mL, and 20 μg/mL • BisBDT: 0.1 μg/mL. 4 μg/mL, and 20 μg/mL
# Tobramycin at 1 μg/mL was used as a comparator drug control known to be partially inactivated by patient sputum. Cultures were incubated with shaking at 37° C. and aliquots were removed every hour for quantitation of colony forming units per mL (CFU/mL) by serial dilution and plating on tryptic soy agar for a total of 6 hours. CFU were counted after incubation of the plates overnight at 37° C.
# [4] = both sexes, F344, whole blood, inhaled, single inhalation dose 47 μg/kg, read-out: Whole blood Mean BisEDT Conc
# [5] = both sexes, F344, whole blood, inhaled, single inhalation dose 124 μg/kg, read-out: Whole blood Mean BisEDT Conc
# [6] = both sexes, F344, whole blood, inhaled, single inhalation dose 400 μg/kg, read-out: Whole blood Mean BisEDT Conc
# [7] = both sexes, F344, whole blood, inhaled, single inhalation dose 3000 μg/kg, read-out: Whole blood Mean BisEDT Conc
compound,measurement,setting,value
"C1C[S][Bi]([S]CC[S][Bi]2[S]CC[S]2)[S]1 [BisEDT, Bismuth-1,2-ethanedithiol]",Tolerability,"[1]; 100 μg/kg inhalation and IV and 250 μg/kg oral, single dose",tolerated
same,Systemic levels lower than seen in the lung (fold),[1]; after inhalation dosing,about 10 ×
same,Duration of initial distribution into tissues after IV dosing (biphasic pattern),[1]; single 100 μg/kg IV dose,18 h
same,Half-life of lung levels after IV dosing,[1]; single 100 μg/kg IV dose,about 24 hour
same,Lung levels after IV dosing vs inhalation group,[1]; single 100 μg/kg IV dose,< 5%
same,Blood exposure after inhalation dosing,[1]; single 100 μg/kg inhalation dose,"sustained, moderate, blood exposure with relatively stable concentrations across time"
same,Blood concentrations after oral dosing,[1]; single 250 μg/kg oral dose,"very low, but sustained and measurable"
same,Lung levels after oral dosing,[1]; single 250 μg/kg oral dose,no lung levels
same,Half-life in lung tissue after inhalation dosing,[1]; single inhalation dose (100 μg/kg lung deposited),about 4 days
same,concentration at 8 h,[2]; [4],0.114 µg/mL
same,concentration at 12 h,[2]; [4],0.098 µg/mL
same,concentration at 24 h,[2]; [4],0.282 µg/mL
same,concentration at 30 h,[2]; [4],0.373 µg/mL
same,concentration at 8 h,[2]; [5],0.247 µg/mL
same,concentration at 12 h,[2]; [5],0.187 µg/mL
same,concentration at 24 h,[2]; [5],0.571 µg/mL
same,concentration at 30 h,[2]; [5],0.668 µg/mL
same,concentration at 8 h,[2]; [6],1.7 µg/mL
same,concentration at 12 h,[2]; [6],1.25 µg/mL
same,concentration at 24 h,[2]; [6],2.7 µg/mL
same,concentration at 30 h,[2]; [6],2.74 µg/mL
same,concentration at 1 h,"[2]; both sexes, F344, whole blood, inhaled, single inhalation dose 3000 μg/kg, nominal time 1 hr, read-out: Whole blood Mean BisEDT Conc",0.485 µg/mL
same,concentration at 2 h,"[2]; both sexes, F344, whole blood, inhaled, single inhalation dose 3000 μg/kg, nominal time 2 hr, read-out: Whole blood Mean BisEDT Conc",2.5 µg/mL
same,concentration at 8 h,[2]; [7],6.57 µg/mL
same,concentration at 24 h,[2]; [7],20.5 µg/mL
same,Lung Mean BisEDT Conc at sacrifice,"[2]; single inhalation dose 47 μg/kg, sac time 30 hr",4.8 ng/g
same,Lung Mean BisEDT Conc at sacrifice,"[2]; single inhalation dose 124 μg/kg, sac time 30 hr",5.9 ng/g
same,Lung Mean BisEDT Conc at sacrifice,"[2]; single inhalation dose 400 μg/kg, sac time 30 hr",12.1 ng/g
same,Lung Mean BisEDT Conc at sacrifice,"[2]; single inhalation dose 3000 μg/kg, sac time 24 hr",82.3 ng/g
same,Bactericidal activity against PA01 at 0.1 μg/mL,"[3]; 0.1 μg/mL, 6 hour assay",not bactericidal
same,Effect of CF patient sputum on bactericidal activity,[3]; 10% CF patient sputum in cation-adjusted Mueller-Hinton broth,partially inhibited
same,Bactericidal activity against Pseudomonas aeruginosa strain PA01 in this assay,[3]; overall conclusion of killing curves,bactericidal
"NC[C@H]1O[C@H](O[C@H]2[C@H](O)[C@@H](O[C@H]3O[C@H](CO)[C@@H](O)[C@H](N)[C@H]3O)[C@H](N)C[C@@H]2N)[C@H](N)C[C@@H]1O [tobramycin, reference compound]",CFU higher in cultures with sputum compared to cultures without sputum,"[3]; tobramycin 1 μg/mL, 10% CF patient sputum, most time points",0.5-1 log CFU/mL
